pIC50: −log10 of the molar value. Counter-ions that a name gives are not always drawn.
Each compound was assayed against catalytic domain of human PARP14 (Homo sapiens (Human), UniProt Q460N5) (assay: Enzymatic assay for inhibition of PARP14 (DELFIA, auto-modification with biotin-NAD)). Conditions: auto-modification of PARP14 by biotin-NAD, 50 nM PARP14, 3 μM biotin-NAD.
Format: biochemical
Method: An N-terminal His-TEV fusion tag was used to purify the protein from cell lysates. The His-TEV tag was left on the protein for use in the enzymatic assay.
Enzymatic inhibition of PARP14 was measured using a dissociation-enhanced lanthanide fluorescence immunoassay (DELFIA) monitoring the auto-modification of PARP14 by biotinylated nicotinamide adenine dinucleotide (biotin-NAD). 1 μL of a dose response curve of each test compound was spotted in 384-well nickel-coated white microplates (Thermo) using a Mosquito (TTP Labtech). Reactions were performed in a 50 μL volume by adding 40 μL of PARP14 in assay buffer (20 mM HEPES pH==8, 100 mM NaCl, 0.1% bovine serum albumin, 2 mM DTT and 0.002%0 Tween20), incubating with test compound at 25° C. for 30 min, then adding 10 μL of biotin-NAD (Biolog). The final concentrations of PARP14 and biotin-NAD are 50 nM and 3 μM, respectively. Reactions proceeded at 25° C. for 3 h, then were quenched with 5 μL of 10 mM unmodified nicotinamide adenine dinucleotide (Sigma-Aldrich). The quenched reactions were washed 3 times with 100 μL of TBST wash buffer (50 mM Tris-HCl, 150 mM NaCl and 0.1% Tween20). Next, to the washed and dried plate was added 25 μL of DELFIA Europium-N1 streptavidin (Perkin Elmer) diluted in DELFIA assay buffer (Perkin Elmer). After a 30 min incubation at 25° C., the plate was washed 5 times with TBST wash buffer. Finally, 25 μL of DELFIA enhancement solution was added. After a 5 min incubation the plate was read on an Envision platereader equipped with a LANCE/DELFIA top mirror (Perkin Elmer) using excitation of 340 nm and emission of 615 nm to measure the amount of Europium present in each well, informing on the amount of biotin-NAD that was transferred in the automodification reaction.
[formula] where ex615cmpd is the emission from the compound treated well, ex615min is the emission from the rucaparib treated positive control well and ex615max is the emission from the DMSO treated negative control well.
The % inhibition values were plotted as a function of compound concentration and the following 4-parameter fit was applied to derive the IC50 values:
[formula] where top and bottom are normally allowed to float, but may be fixed at 100 or 0 respectively in a 3-parameter fit. The Hill Coefficient is normally allowed to float but may also be fixed at 1 in a 3-parameter fit. Y is the % inhibition and X is the compound concentration.

catalytic domain of human PARP14, sequence (Q460N5 1611-1801): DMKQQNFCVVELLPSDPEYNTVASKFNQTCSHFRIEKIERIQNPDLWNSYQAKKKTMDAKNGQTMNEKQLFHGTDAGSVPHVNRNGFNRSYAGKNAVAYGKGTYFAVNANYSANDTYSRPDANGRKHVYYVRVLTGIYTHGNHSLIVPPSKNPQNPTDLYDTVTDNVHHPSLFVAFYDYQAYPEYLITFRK

**Q.** How did the pIC50 turn out when `Cc1cccc2c(=O)[nH]c(CSC3CCC(O)CC3)nc12` (stereo not drawn) [Example 22, 2-(((4-Hydroxycyclohexyl)thio)methyl)-8-methylquinazolin-4(3H)-one] was run?
**A.** > 6.00

**Q.** How did the pIC50 turn out when `O=c1[nH]c(CSC2CCOCC2)nc2cc(NC3CCCCC3)c(F)cc12` [Example 290, 7-(Cyclohexylamino)-6-fluoro-2-(((tetrahydro-2H-pyran-4-yl)thio)methyl)quinazolin-4(3H)-one] was run?
**A.** > 6.00

**Q.** With `O=c1[nH]c(CSC2CCOCC2)nc2cc(NC[C@@H]3CCOC3)c(F)c(F)c12` [Example 323a, (S)-5,6-Difluoro-2-(((tetrahydro-2H-pyran-4-yl)thio)methyl)-7-(((tetrahydrofuran-3-yl)methyl)amino)quinazolin-4(3H)-one] as the compound, how does the pIC50 read?
**A.** > 6.00

**Q.** `Cc1cccc2c(=O)[nH]c(CSC3CCN(CCN)CC3)nc12` [Example 163, 2-(((1-(2-Aminoethyl)piperidin-4-yl)thio)methyl)-8-methylquinazolin-4(3H)-one dihydrochloride] was tested. Which pIC50 did it give?
**A.** 5.00 to 6.00

**Q.** How did the pIC50 turn out when `Nc1ccc2c(=O)[nH]c(CSC3CCOCC3)nc2c1` [Example 74, 7-Amino-2-(((tetrahydro-2H-pyran-4-yl)thio)methyl)quinazolin-4(3H)-one] was run?
**A.** < 5.00

**Q.** With `O=c1[nH]c(CSC2CCOCC2)nc2cc(NC3CCCC3)cc(Cl)c12` [Example 253, 5-Chloro-7-(cyclopentylamino)-2-(((tetrahydro-2H-pyran-4-yl)thio)methyl)quinazolin-4(3H)-one] as the compound, how does the pIC50 read?
**A.** > 6.00

**Q.** With `O=c1[nH]c(CSC2CCOCC2)nc2c(Cc3ccccc3)cccc12` [Example 10] as the compound, how does the pIC50 read?
**A.** < 5.00

**Q.** How did the pIC50 turn out when `O=C(C1CC1)N1CCC(COc2cc(F)c3c(=O)[nH]c(CSC4CCOCC4)nc3c2)CC1` [Example 390] was run?
**A.** > 6.00

**Q.** With `C[C@]1(O)C[C@H](COc2cc(F)c3c(=O)[nH]c(CSC4CCOCC4)nc3c2)C1` [Example 385] as the compound, how does the pIC50 read?
**A.** > 6.00

**Q.** `Cc1cccc2c(=O)[nH]c(CSC3CCN(C[C@H](O)CO)CC3)nc12` [Example 159, (S)-2-(((1-(2,3-Dihydroxypropyl)piperidin-4-yl)thio)methyl)-8-methyl quinazolin-4(3H)-one Trifluoroacetate] was tested. Which pIC50 did it give?
**A.** 5.00 to 6.00

**Q.** With `Cc1cccc2c(=O)[nH]c(CS[C@H]3CC[C@H](CC(N)=O)CC3)nc12` [Example 209, 2-((trans)-4-(((8-Methyl-4-oxo-3,4-dihydroquinazolin-2-yl)methyl)thio)cyclohexyl) acetamide] as the compound, how does the pIC50 read?
**A.** > 6.00

**Q.** With `O=c1[nH]c(CSC2CCOCC2)nc2cc(Nc3ccccc3)ccc12` [Example 79, 7-(Phenylamino)-2-(((tetrahydro-2H-pyran-4-yl)thio)methyl)quinazolin-4(3H)-one] as the compound, how does the pIC50 read?
**A.** > 6.00

**Q.** With `O=c1[nH]c(CSC2CCN(C3COC3)CC2)nc2cc(NCC3CC3)cc(F)c12` [Example 274, 7-((Cyclopropylmethyl)amino)-5-fluoro-2-(((1-(oxetan-3-yl)piperidin-4-yl)thio)methyl)quinazolin-4(3H)-one] as the compound, how does the pIC50 read?
**A.** > 6.00

**Q.** `O=c1[nH]c(CSC2CCOCC2)nc2cc(OC[C@H]3CCOC3)cc(F)c12` [Example 239b, (S)-5-fluoro-2-(((tetrahydro-2H-pyran-4-yl)thio)methyl)-7-((tetrahydrofuran-3-yl)methoxy)quinazolin-4(3H)-one] was tested. Which pIC50 did it give?
**A.** > 6.00

**Q.** How did the pIC50 turn out when `CO[C@H]1CC[C@H](Nc2cc3nc(CS[C@H]4CC[C@H](O)CC4)[nH]c(=O)c3c(F)c2F)CC1` [Example 377] was run?
**A.** > 6.00

**Q.** `Cc1cccc2c(=O)[nH]c(CS[C@H]3CC[C@H](CCN)CC3)nc12` [Example 181, 2-((((trans)-4-(2-aminoethyl)cyclohexyl)thio)methyl)-8-methylquinazolin-4(3H)-one] was tested. Which pIC50 did it give?
**A.** > 6.00

**Q.** How did the pIC50 turn out when `O=c1[nH]c(CSC2CCOCC2)nc2cc(OCC3CC3)ccc12` [Example 219, 7-(Cyclopropylmethoxy)-2-(((tetrahydro-2H-pyran-4-yl)thio)methyl)quinazolin-4(3H)-one] was run?
**A.** > 6.00

**Q.** How did the pIC50 turn out when `O=c1[nH]c(CS[C@H]2CC[C@H](O)CC2)nc2cc(OCC3CCCC3)cc(F)c12` [Example 314, 7-(Cyclopentylmethoxy)-5-fluoro-2-(((trans-4-hydroxycyclohexyl)thio)methyl)quinazolin-4(3H)-one] was run?
**A.** > 6.00

**Q.** `Cc1cccc2c(=O)[nH]c(CSC3CCN(Cc4ccc5cnn(C)c5c4)CC3)nc12` [Example 148, 8-Methyl-2-(((1-((1-methyl-1H-indazol-6-yl)methyl)piperidin-4-yl)thio)methyl)quinazolin-4(3H)-one trifluoroacetate] was tested. Which pIC50 did it give?
**A.** > 6.00

**Q.** With `Cc1cccc2c(=O)[nH]c(CS[C@H]3CC[C@@H](O)CC3)nc12` [Example 24, 2-((((cis)-4-Hydroxycyclohexyl)thio)methyl)-8-methylquinazolin-4(3H)-one] as the compound, how does the pIC50 read?
**A.** 5.00 to 6.00

**Q.** `O=c1[nH]c(CSC2CCOCC2)nc2cc(N[C@@H]3CCCOC3)c(F)c(F)c12` [Example 348] was tested. Which pIC50 did it give?
**A.** > 6.00

**Q.** With `O=c1[nH]c(CSC2CCOCC2)nc2cc(NCc3cccnc3)ccc12` [Example 123, 7-((Pyridin-3-ylmethyl)amino)-2-(((tetrahydro-2H-pyran-4-yl)thio)methyl)quinazolin-4(3H)-one] as the compound, how does the pIC50 read?
**A.** > 6.00

**Q.** `Cc1cccc(CN2CCC(SCc3nc4c(C)cccc4c(=O)[nH]3)CC2)n1` [Example 145, 8-Methyl-2-(((1-((6-methylpyridin-2-yl)methyl)piperidin-4-yl)thio)methyl)quinazolin-4(3H)-one bistrifluoroacetate] was tested. Which pIC50 did it give?
**A.** > 6.00

**Q.** `Cc1cccc2c(=O)[nH]c(CSC3CCN(S(C)(=O)=O)CC3)nc12` [Example 174, 8-Methyl-2-(((1-(methylsulfonyl)piperidin-4-yl)thio)methyl)quinazolin-4(3H)-one] was tested. Which pIC50 did it give?
**A.** > 6.00

**Q.** How did the pIC50 turn out when `O=c1[nH]c(CSC2CCOCC2)nc2cc(NC3CCOCC3)ccc12` [Example 114, 7-((Tetrahydro-2H-pyran-4-yl)amino)-2-(((tetrahydro-2H-pyran-4-yl)thio)methyl)quinazolin-4(3H)-one] was run?
**A.** 5.00 to 6.00

**Q.** With `O=c1[nH]c(CSC2CCOCC2)nc2cc(OC[C@H]3CCC[C@H]3O)cc(F)c12` (relative stereo) [Example 359] as the compound, how does the pIC50 read?
**A.** > 6.00

**Q.** With `O=c1[nH]c(CSC2CCOCC2)nc2cc(Nc3ccccn3)ccc12` [Example 81, 7-(Pyridin-2-ylamino)-2-(((tetrahydro-2H-pyran-4-yl)thio)methyl)quinazolin-4(3H)-one] as the compound, how does the pIC50 read?
**A.** 5.00 to 6.00

**Q.** `NC[C@]1(F)CC[C@H](SCc2nc3cc(NC4CCCC4)cc(F)c3c(=O)[nH]2)CC1` [Example 244, 2-(((cis-4-(Aminomethyl)-4-fluorocyclohexyl)thio)methyl)-7-(cyclopentylamino)-5-fluoroquinazolin-4(3H)-one Trifluoroacetate] was tested. Which pIC50 did it give?
**A.** > 6.00

**Q.** How did the pIC50 turn out when `O=c1[nH]c(CSC2CCOCC2)nc2cc(NC3CCN(CC(F)(F)F)CC3)cc(F)c12` [Example 288, 5-Fluoro-2-(((tetrahydro-2H-pyran-4-yl)thio)methyl)-7-((1-(2,2,2-trifluoroethyl)piperidin-4-yl)amino)quinazolin-4(3H)-one] was run?
**A.** > 6.00

**Q.** With `CC1(SCc2nc3cc(OCC4CCOCC4)cc(F)c3c(=O)[nH]2)CCOCC1` [Example 358] as the compound, how does the pIC50 read?
**A.** > 6.00

**Q.** `CS(=O)(=O)N1CCC[C@@H](Nc2cc(F)c3c(=O)[nH]c(CS[C@H]4CC[C@H](O)CC4)nc3c2)C1` [Example 269, 5-Fluoro-2-(((trans-4-hydroxycyclohexyl)thio)methyl)-7-(((R)-1-(methylsulfonyl)piperidin-3-yl)amino)quinazolin-4(3H)-one] was tested. Which pIC50 did it give?
**A.** > 6.00

**Q.** With `O=c1[nH]c(CSC2CCNCC2)nc2cc(NC3CCC3)ccc12` [Example 200, 7-(cyclobutylamino)-2-((piperidin-4-ylthio)methyl)quinazolin-4(3H)-one] as the compound, how does the pIC50 read?
**A.** > 6.00

**Q.** `O=c1[nH]c(CS[C@H]2CCNC[C@H](F)C2)nc2cc(NC3CCCC3)cc(F)c12` (relative stereo) [Example 240, 7-(Cyclopentylamino)-5-fluoro-2-(((trans-6-fluoroazepan-4-yl)thio)methyl)quinazolin-4(3H)-one] was tested. Which pIC50 did it give?
**A.** > 6.00

**Q.** How did the pIC50 turn out when `O=c1[nH]c(CSC2CCOCC2)nc2cc(NCC3CC3)c(F)cc12` [Example 292, 7-((Cyclopropylmethyl)amino)-6-fluoro-2-(((tetrahydro-2H-pyran-4-yl)thio)methyl)quinazolin-4(3H)-one] was run?
**A.** > 6.00

**Q.** `Cc1cccc2c(=O)[nH]c(CSCC3CCOCC3)nc12` [Example 12, 8-Methyl-2-((((tetrahydro-2H-pyran-4-yl)methyl)thio)methyl)quinazolin-4(3H)-one] was tested. Which pIC50 did it give?
**A.** 5.00 to 6.00

**Q.** `O=c1[nH]c(CSC2CCOCC2)nc2c(F)c(F)ccc12` [Example 45, 7,8-Difluoro-2-(((tetrahydro-2H-pyran-4-yl)thio)methyl)quinazolin-4(3H)-one] was tested. Which pIC50 did it give?
**A.** 5.00 to 6.00

From patent US10562891B2, “Quinazolinones as PARP14 inhibitors” (Ribon Therapeutics Inc., priority 2017, dated 2020)
